The values that follow come from publication PMC7021728, “Structure of the agonist 12–HHT in its BLT2 receptor-bound state” (Scientific Reports, 2020).

Changes are numbered by the printed parent chain.

One assay concerns the target BLT2. Also on record: method as in PMID 10934230. Particulars: cited from earlier work.
A further assay addresses purified BLT2 receptor. Also on record: method as in PMID 21688157. Conditions: purified BLT2 associated with amphipols in solution, in vitro; cited from earlier work.
In another assay the target is BLT1. Also on record: method as in PMID 10934230. Conditions: membrane fractions, BLT1 transfected HEK 293 cells; in cellulo; read-out: equilibrium dissociation constant (Kd); cited from earlier work.
A further assay concerns the target T1, BLT2 S174^ECL2A (Homo sapiens, UniProt Q9NPC1, S174A).
T1 construct: made in house
T1 sequence (Q9NPC1 1-358 S174A): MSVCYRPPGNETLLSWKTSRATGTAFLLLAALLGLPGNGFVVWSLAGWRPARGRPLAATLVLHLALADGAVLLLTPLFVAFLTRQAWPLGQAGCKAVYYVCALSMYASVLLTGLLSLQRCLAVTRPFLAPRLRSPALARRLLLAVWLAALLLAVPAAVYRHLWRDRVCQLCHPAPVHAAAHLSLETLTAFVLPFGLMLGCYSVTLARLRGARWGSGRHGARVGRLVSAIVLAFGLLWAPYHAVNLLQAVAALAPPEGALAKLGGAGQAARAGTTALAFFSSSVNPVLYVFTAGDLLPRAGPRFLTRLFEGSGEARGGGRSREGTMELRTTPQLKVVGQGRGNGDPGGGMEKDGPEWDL
As to the kind of experiment: Gi protein activation catalyzed by BLT2 mutant. It counts as biochemical. Particulars: S174 mutation compared to wild-type, in words. The method, then:
(§1) All mutations were introduced in the wild-type BLT2 receptor by PCR-mediated mutagenesis using the QuickChange multisite-directed mutagenesis kit (Stratagene) and the wild-type BLT2 construct as a template. Mutations were confirmed by nucleotide sequencing.
(§2) Gαi2 and Gβ1γ2 were prepared as previously described. Briefly, agonist-dependent functional coupling of the purified receptor to Gαi2β1γ2 was assessed through the rate of GTPγS binding at increasing agonist concentrations determined by monitoring the relative increase in the intrinsic fluorescence ( λexcitation=300nm , λemission=345nm ) of Gαi2 (200 nM of purified G protein) in the presence of BLT2 (20 nM) in buffer containing 10 mM MOPS, pH 7.2, 130 mM NaCl, and 2 mM MgCl2 at 15 °C after the addition of 10 μM GTPγS. The data were normalized to the fluorescence maximum obtained in the presence of saturating concentrations in 12–HHT (10 μM).

The next assay has as its target T2, BLT2 R270^7.35A (Homo sapiens, UniProt Q9NPC1, R270A).
T2 construct: made in house
T2 sequence (Q9NPC1 1-358 R270A): T1 sequence (Q9NPC1 1-358 S174A) with A174S, R270A
Nature of the assay: Gi protein activation catalyzed by BLT2 mutant. It counts as biochemical. Conditions: R270 mutation compared to wild-type, in words. The method, then:
as §1, §2

The subject of assay [1] is BLT1 (residue R156 in BLT1 mutated to alanine). Also noted: method as in PMID 17237498. Conditions: in words; cited from earlier work.

As for `CCCCC/C=C\C[C@@H](O)/C=C/C=C/C=C\[C@@H](O)CCCC(=O)O` [LTB4, leukotriene B4], the Kd (as a rule, the concentration at which binding is half-saturated) on BLT2 (membrane fractions, BLT2 transfected HEK 293 cells, in cellulo, read-out: equilibrium dissociation constant (Kd)) was roughly 20 nM; at purified BLT2 receptor, roughly 200 nM; at BLT1, roughly 1 nM. Also, the “Kd weaker in the case of BLT2 compared to BLT1” value at BLT2 (transfected HEK 293 cells) is reported as 20 fold. Also, the “effect of the mutation on ligand binding” value at BLT2 S174^ECL2A and on BLT2 R270^7.35A was “does not affect the binding” each time. For the same compound, the “effect of the mutation on LTB4 binding” value in assay [1] is “complete loss of LTB4 binding”.
